Measurements as given in patent publication US20050267092A1, “Novel cephalosporin compounds and process for preparing the same” (priority 2002, published 2005).
In brackets after ≈: the same amount, converted by molar mass. Where two headings read alike, the source gives them in different places. Each block holds one molecule with its values, some of them ahead of it.

Columns and labels:
Assay in all cases: Minimum Inhibitory Concentration (MIC), agar dilution, standard strains
Assay type in all cases: cell-based
[1] = test system: S. aureus 77; settings: for MIC: read-out: Minimum Inhibitory Concentration (MIC), S. aureus 77
Description: (§1) Minimum Inhibitory Concentration (MIC)
(§2) The effectiveness of the compound according to the present invention was determined by obtaining Minumum Inhibitory Concentration (MIC) of the compounds prepared by the above examples (Compounds I-1˜I-6, I-10) and Vancomycin, which is the known compound having a potent activity against gram-positive strains, as the control drug against the standard strains. Specifically, Minimum Inhibitory Concentration was obtained by diluting the test compounds according to a double dilution method, dispersing them in Mueller-Hinton agar medium, inoculating each of the test strains having 10^7 cfu (colony forming unit) per ml in an amount of 2 μl to the medium and then incubating them at 37° C. for 20 hours. From the results of Minimum Inhibitory Concentration test, it can be seen that the compound according to the present invention has a good activity against major pathogenic microorganisms, which cause hospital infection, including MRSA strains.

[2] = test system: S. epidermidis Q033; settings: for MIC: Staphylococcus epidermidis, read-out: Minimum Inhibitory Concentration (MIC), S. epidermidis Q033
Description: as §1, §2

[3] = test system: E. faecalis 2168; settings: for MIC: read-out: Minimum Inhibitory Concentration (MIC), E. faecalis 2168
Description: as §1, §2

[4] = test system: S. aureus giorgio; settings: for MIC: Staphylococcus aureus, read-out: Minimum Inhibitory Concentration (MIC), S. aureus giorgio
Description: as §1, §2

[5] = test system: S. aureus K311; settings: for MIC: Staphylococcus aureus, read-out: Minimum Inhibitory Concentration (MIC), S. aureus K311
Description: as §1, §2

[6] = Staphylococcus aureus, 77, Mueller-Hinton agar, double dilution, 37° C. for 20 hours
[7] = Q033, Mueller-Hinton agar, double dilution, 37° C. for 20 hours
[8] = Enterococcus faecalis, 2168, Mueller-Hinton agar, double dilution, 37° C. for 20 hours
[9] = Mueller-Hinton agar, double dilution, 37° C. for 20 hours
[10] = K311, Mueller-Hinton agar, double dilution, 37° C. for 20 hours

SMILES: NCCSc1nccc(S/C=C/C2=C(C(=O)O)N3C(=O)[C@@H](NC(=O)C(=NO)c4nc(N)sc4Cl)[C@H]3SC2)n1 [Compound I-4, (6R,7R)-7-{[2-(2-amino-5-chloro-1,3-thiazol-4-yl)-2-(hydroxyimino)acetyl]amino}-3-{(E)-2-({2-[(2-aminoethyl)sulfanyl]-4-pyrimidinyl}sulfanyl)ethenyl}-8-oxo-5-thia-1-azabicyclo[4.2.0]oct-2-ene-2-carboxylic acid]
MIC [1, 6]: 1 µg/mL (≈ 1.63 µM) | MIC [2, 7]: 0.13 µg/mL (≈ 0.211 µM) | MIC [3, 8]: 1 µg/mL (≈ 1.63 µM) | MIC [4, 9]: 0.25 µg/mL (≈ 0.406 µM) | MIC [5, 10]: 2 µg/mL (≈ 3.25 µM)

SMILES: Cc1cc(S/C=C/C2=C(C(=O)O)N3C(=O)[C@@H](NC(=O)C(=NO)c4nc(N)sc4Cl)[C@H]3SC2)nc(SCCN)n1 [Compound I-5]
Minimum Inhibitory Concentration (MIC), S. aureus 77 [1, 9]: 1 µg/mL | Minimum Inhibitory Concentration (MIC), S. epidermidis Q033 [2, 9]: 0.13 µg/mL | Minimum Inhibitory Concentration (MIC), E. faecalis 2168 [3, 9]: 0.25 µg/mL | Minimum Inhibitory Concentration (MIC), S. aureus giorgio [4, 9]: 0.25 µg/mL | Minimum Inhibitory Concentration (MIC), S. aureus K311 [5, 9]: 2 µg/mL

SMILES: Nc1cc(S/C=C/C2=C(C(=O)O)N3C(=O)[C@@H](NC(=O)C(=NO)c4nc(N)sc4Cl)[C@H]3SC2)nc(N)n1 [Compound I-2, (6R,7R)-7-{[2-(2-amino-5-chloro-1,3-thiazol-4-yl)-2-(hydroxyimino)acetyl]amino}-3-{(E)-2-[(2,6-diamino-4-pyrimidinyl)sulfanyl]ethenyl}-8-oxo-5-thia-1-azabicyclo[4.2.0]oct-2-ene-2-carboxylic acid]
MIC [1, 6]: 1 µg/mL (≈ 1.75 µM) | MIC [2, 7]: 0.063 µg/mL (≈ 0.111 µM) | MIC [3, 8]: 1 µg/mL (≈ 1.75 µM) | MIC [4, 9]: 0.13 µg/mL (≈ 0.228 µM) | MIC [5, 10]: 1 µg/mL (≈ 1.75 µM)

SMILES: CN[C@H](CC(C)C)C(=O)N[C@H]1C(=O)N[C@@H](CC(N)=O)C(=O)N[C@H]2C(=O)N[C@H]3C(=O)N[C@H](C(=O)N[C@H](C(=O)O)c4cc(O)cc(O)c4-c4cc3ccc4O)[C@H](O)c3ccc(c(Cl)c3)Oc3cc2cc(c3O[C@@H]2O[C@H](CO)[C@@H](O)[C@H](O)[C@H]2O[C@H]2C[C@](C)(N)[C@H](O)[C@H](C)O2)Oc2ccc(cc2Cl)[C@H]1O [Vancomycin, reference compound]
MIC ([1]; Staphylococcus aureus, 77, 20 h): 1 µg/mL (≈ 0.69 µM) | MIC ([2]; Q033, 20 h): 1 µg/mL (≈ 0.69 µM) | MIC ([3]; Enterococcus faecalis, 2168, 20 h): > 64 µg/mL | MIC ([4]; 20 h): 1 µg/mL (≈ 0.69 µM) | MIC ([5]; K311, 20 h): 2 µg/mL (≈ 1.38 µM)

SMILES: Nc1cc(S/C=C/C2=C(C(=O)O)N3C(=O)[C@@H](NC(=O)C(=NOC4CCCC4)c4nc(N)sc4Cl)[C@H]3SC2)nc(N)n1 [Compound I-10, (6R,7R)-7-({2-(2-amino-5-chloro-1,3-thiazol-4-yl)-2-[(cyclopentyloxy)imino]acetyl}amino)-3-{(E)-2-[(2,6-diamino-4-pyrimidinyl)sulfanyl]ethenyl}-8-oxo-5-thia-1-azabicyclo[4.2.0]oct-2-ene-2-carboxylic acid]
MIC [1, 6]: 2 µg/mL (≈ 3.13 µM) | MIC [2, 7]: 0.063 µg/mL (≈ 0.0987 µM) | MIC [3, 8]: 4 µg/mL (≈ 6.27 µM) | MIC [4, 9]: 0.5 µg/mL (≈ 0.784 µM) | MIC [5, 10]: 2 µg/mL (≈ 3.13 µM)

The remaining molecules from weak to strong by MIC [1, 6], led by results:

MIC [1, 6]: 0.5 µg/mL (≈ 0.876 µM) | MIC [2, 7]: 0.063 µg/mL (≈ 0.11 µM) | MIC [3, 8]: 0.5 µg/mL (≈ 0.876 µM) | MIC [4, 9]: 0.13 µg/mL (≈ 0.228 µM) | MIC [5, 10]: 0.5 µg/mL (≈ 0.876 µM)
SMILES: Nc1nc(O)cc(S/C=C/C2=C(C(=O)O)N3C(=O)[C@@H](NC(=O)C(=NO)c4nc(N)sc4Cl)[C@H]3SC2)n1 [Compound I-3, (6R,7R)-7-{[2-(2-amino-5-chloro-1,3-thiazol-4-yl)-2-(hydroxyimino)acetyl]amino}-3-{(E)-2-[(2-amino-6-hydroxy-4-pyrimidinyl)sulfanyl]ethenyl}-8-oxo-5-thia-1-azabicyclo[4.2.0]oct-2-ene-2-carboxylic acid]

MIC [1, 6]: 0.5 µg/mL (≈ 0.84 µM) | MIC [2, 7]: 0.031 µg/mL (≈ 0.0521 µM) | MIC [3, 8]: 0.5 µg/mL (≈ 0.84 µM) | MIC [4, 9]: 0.13 µg/mL (≈ 0.218 µM) | MIC [5, 10]: 0.5 µg/mL (≈ 0.84 µM)
SMILES: Nc1nc(C(=NO)C(=O)N[C@@H]2C(=O)N3C(C(=O)O)=C(/C=C/Sc4nc(N)c5cn[nH]c5n4)CS[C@H]23)c(Cl)s1 [Compound I-6, (6R,7R)-7-{[2-(2-amino-5-chloro-1,3-thiazol-4-yl)-2-(hydroxyimino)acetyl]amino}-3-{(E)-2-[(4-amino-1H-pyrazolo[3,4-d]pyrimidin-6-yl)sulfanyl]ethenyl}-8-oxo-5-thia-1-azabicyclo[4.2.0]oct-2-ene-2-carboxylic acid]

MIC [1, 6]: 0.25 µg/mL (≈ 0.438 µM) | MIC [2, 7]: 0.063 µg/mL (≈ 0.11 µM) | MIC [3, 8]: 0.5 µg/mL (≈ 0.876 µM) | MIC [4, 9]: 0.13 µg/mL (≈ 0.228 µM) | MIC [5, 10]: 0.5 µg/mL (≈ 0.876 µM)
SMILES: Nc1cc(S/C=C/C2=C(C(=O)O)N3C(=O)[C@@H](NC(=O)C(=NO)c4nc(N)sc4Cl)[C@H]3SC2)nc(O)n1 [Compound I-1, (6R,7R)-7-{[2-(2-amino-5-chloro-1,3-thiazol-4-yl)-2-(hydroxyimino)acetyl]amino}-3-{(E)-2-[(6-amino-2-hydroxy-4-pyrimidinyl)sulfanyl]ethenyl}-8-oxo-5-thia-1-azabicyclo[4.2.0]oct-2-ene-2-carboxylic acid]
